Results as given in patent publication US20220087960A1, “Oral Pharmaceutical Immediate Release Composition” (Aardvark Therapeutics Inc., priority 2020, published 2022).

Columns and labels:
male Sprague Dawley rats = experiment: 24 hour food intake study in rats comparing DA to DB (Example 4); format: in vivo, rat; conditions: gavage, DA high dose 23.1 mg/kg
Experimental: This example provides a 24 hour study comparing DA to DB is rats (male Sprague Dawley, Charles River) over a 24 hour period. The […] of 15 rats each were vehicle controlled distilled water gavage QID, DB at a dose of 26.8 mg/kg gavage QID, DA low dose 2.9 mg/kg gavage QD, and DA high dose 23.1 mg/kg gavage QD. Food intake at 2 hr, 4 hr, 6 hr, 8 hr and 24 hr after administration was measured.

male SD rats = experiment: Single oral dose food intake study, 24-hour observational period (Example 6, first in vivo study); parameters: species or system rat
Experimental: This example compares efficacy of DA versus DB in food inhibition and body weight control. As a background, according to Avau et al., Sci. Rep. […] In our first in vivo study, 45 male SD rats (purchased from Envigo at 8-10 weeks of age) were divided into three groups (15 in each group), which were administered a single oral dose of vehicle (distilled water), 26.8 mg/kg of DB, or 23.1 mg/kg of DA respectively, with a 24-hour observational period, to compare the efficacy of DB versus DA in reducing food intake. Table 4. Mean cumulative food intake during 24-h observational period

male C57BL/6N DIO mice = experiment: 56-day BID treatment, food consumption and body weight in DIO mice (Example 6, second in vivo study); parameters: species or system mouse
Experimental: In a second in vivo study, 45 male C57BL/6N DIO mice (purchased from Envigo at 18 weeks of age, fed with high-fat diet) were divided into three groups (15 in each group), which were orally administered vehicle (distilled water), 26.8 mg/kg of DB, or 23.1 mg/kg of DA respectively, twice daily (BID), with a 56-day treatment period to compare the efficacy of DB versus DA in food intake reduction and body weight control. Briefly, once weekly, the food weight for each cage was recorded at 0 hour and then 24 hours later, permitting calculation of food consumption for that 24-hour interval. In addition, starting from Day 0, the mice were weighed three times weekly (every 2-3 days).

in vivo = conditions: both, Sprague Dawley, rat, po
Experimental: (§1) The drugs were administered to Sprague Dawley rats with a 14-day observational period. Twenty-four Male Sprague Dawley (SD) rats and 24 female SD rats were purchased from Envigo at 8-10 weeks of age. The DA group had four dose levels (120, 360, 1000, and 2000 mg/kg, single administration by oral gavage), 3 rats per sex, 6 animals in total per dose level; and the DB group: four dose levels (120, 360, 1000, and 2000 mg/kg, single administration by oral gavage), 3 rats per sex, 6 animals in total per dose level. The estimated median lethal dose (LD50) was determined by a nonlinear regression [model: Y=100/(1+10^(LogEC50-X)), Hill slope=1.0) to calculate LD50.

Sprague Dawley rats = experiment: in vivo; conditions: rat, po
Experimental: as §1

For `CC(=O)[O-].CC[N+](CC)(CC(=O)Nc1c(C)cccc1C)Cc1ccccc1` [DA, Denatonium acetate], the “cumulative food consumption over 24 hours (FIG. 5)” value (male Sprague Dawley rats) was “largest impact”, the “food intake reduction, DA compared with DB” value (male SD rats; 23.1 mg/kg DA vs 26.8 mg/kg DB) was “a greater food intake reduction” and the “Mean cumulative food intake 0-2 h” value (male SD rats; single oral dose (DA 23.1 mg/kg, DB 26.8 mg/kg), 0-2 h, N = 15) was 4.7 gram. The “Mean cumulative food intake 0-4 h” value (male SD rats; single oral dose (DA 23.1 mg/kg, DB 26.8 mg/kg), 0-4 h, N = 15) was 7.3 gram, the “Mean cumulative food intake 0-6 h” value (male SD rats; single oral dose (DA 23.1 mg/kg, DB 26.8 mg/kg), 0-6 h, N = 15) was 10.3 gram and the “Mean cumulative food intake 0-8 h” value (male SD rats; single oral dose (DA 23.1 mg/kg, DB 26.8 mg/kg), 0-8 h, N = 15) was 12.5 gram. The “Mean cumulative food intake 0-24 h” value (male SD rats; single oral dose (DA 23.1 mg/kg, DB 26.8 mg/kg), 0-24 h, N = 15) was 20.2 gram, the “cumulative food intake as compared with vehicle” value (male SD rats; single oral dose, all indicated time intervals) was “reduced cumulative food intake during all the indicated time intervals as compared with vehicle” and the “body weight gain as compared to vehicle treatment” value (male C57BL/6N DIO mice; DIO mice on high-fat diet, 26.8 mg/kg DB or 23.1 mg/kg DA BID) was “less body weight gain as compared to vehicle treatment”. The “Mean food consumption per animal for 24-h interval, Day 0” value (male C57BL/6N DIO mice; DIO mice, BID oral (DA 23.1 mg/kg, DB 26.8 mg/kg), Day 0) was 2.2 gram, the “Mean food consumption per animal for 24-h interval, Day 7” value (male C57BL/6N DIO mice; DIO mice, BID oral (DA 23.1 mg/kg, DB 26.8 mg/kg), Day 7) was 1.7 gram and the “Mean food consumption per animal for 24-h interval, Day 14” value (male C57BL/6N DIO mice; DIO mice, BID oral (DA 23.1 mg/kg, DB 26.8 mg/kg), Day 14) was 1.9 gram. The “Mean food consumption per animal for 24-h interval, Day 21” value (male C57BL/6N DIO mice; DIO mice, BID oral (DA 23.1 mg/kg, DB 26.8 mg/kg), Day 21) was 2.3 gram, the “Mean food consumption per animal for 24-h interval, Day 28” value (male C57BL/6N DIO mice; DIO mice, BID oral (DA 23.1 mg/kg, DB 26.8 mg/kg), Day 28) was 2.0 gram and the “Mean food consumption per animal for 24-h interval, Day 35” value (male C57BL/6N DIO mice; DIO mice, BID oral (DA 23.1 mg/kg, DB 26.8 mg/kg), Day 35) was 2.4 gram. For the same compound, the “Mean food consumption per animal for 24-h interval, Day 42” value (male C57BL/6N DIO mice; DIO mice, BID oral (DA 23.1 mg/kg, DB 26.8 mg/kg), Day 42) was 2.0 gram, the “Mean food consumption per animal for 24-h interval, Day 49” value (male C57BL/6N DIO mice; DIO mice, BID oral (DA 23.1 mg/kg, DB 26.8 mg/kg), Day 49) was 2.3 gram and the “Mean food consumption per animal for 24-h interval, Day 56” value (male C57BL/6N DIO mice; DIO mice, BID oral (DA 23.1 mg/kg, DB 26.8 mg/kg), Day 56) was 1.7 gram. For the same compound, the “Mean normalized body weight (% of baseline), study day 0” value (male C57BL/6N DIO mice; DIO mice, BID oral (DA 23.1 mg/kg, DB 26.8 mg/kg), day 0) was 100.0 % of baseline, the “Mean normalized body weight (% of baseline), study day 4” value (male C57BL/6N DIO mice; DIO mice, BID oral (DA 23.1 mg/kg, DB 26.8 mg/kg), day 4) was 101.1 % of baseline and the “Mean normalized body weight (% of baseline), study day 7” value (male C57BL/6N DIO mice; DIO mice, BID oral (DA 23.1 mg/kg, DB 26.8 mg/kg), day 7) was 100.6 % of baseline. The “Mean normalized body weight (% of baseline), study day 9” value (male C57BL/6N DIO mice; DIO mice, BID oral (DA 23.1 mg/kg, DB 26.8 mg/kg), day 9) was 99.5 % of baseline, the “Mean normalized body weight (% of baseline), study day 11” value (male C57BL/6N DIO mice; DIO mice, BID oral (DA 23.1 mg/kg, DB 26.8 mg/kg), day 11) was 98.8 % of baseline and the “Mean normalized body weight (% of baseline), study day 14” value (male C57BL/6N DIO mice; DIO mice, BID oral (DA 23.1 mg/kg, DB 26.8 mg/kg), day 14) was 99.6 % of baseline. For the same compound, the “Mean normalized body weight (% of baseline), study day 16” value (male C57BL/6N DIO mice; DIO mice, BID oral (DA 23.1 mg/kg, DB 26.8 mg/kg), day 16) was 98.5 % of baseline, the “Mean normalized body weight (% of baseline), study day 18” value (male C57BL/6N DIO mice; DIO mice, BID oral (DA 23.1 mg/kg, DB 26.8 mg/kg), day 18) was 98.4 % of baseline and the “Mean normalized body weight (% of baseline), study day 21” value (male C57BL/6N DIO mice; DIO mice, BID oral (DA 23.1 mg/kg, DB 26.8 mg/kg), day 21) was 99.9 % of baseline. The “Mean normalized body weight (% of baseline), study day 23” value (male C57BL/6N DIO mice; DIO mice, BID oral (DA 23.1 mg/kg, DB 26.8 mg/kg), day 23) was 99.9 % of baseline, the “Mean normalized body weight (% of baseline), study day 25” value (male C57BL/6N DIO mice; DIO mice, BID oral (DA 23.1 mg/kg, DB 26.8 mg/kg), day 25) was 100.0 % of baseline and the “Mean normalized body weight (% of baseline), study day 28” value (male C57BL/6N DIO mice; DIO mice, BID oral (DA 23.1 mg/kg, DB 26.8 mg/kg), day 28) was 100.0 % of baseline. The “Mean normalized body weight (% of baseline), study day 30” value (male C57BL/6N DIO mice; DIO mice, BID oral (DA 23.1 mg/kg, DB 26.8 mg/kg), day 30) was 100.0 % of baseline, the “Mean normalized body weight (% of baseline), study day 32” value (male C57BL/6N DIO mice; DIO mice, BID oral (DA 23.1 mg/kg, DB 26.8 mg/kg), day 32) was 102.0 % of baseline and the “Mean normalized body weight (% of baseline), study day 34” value (male C57BL/6N DIO mice; DIO mice, BID oral (DA 23.1 mg/kg, DB 26.8 mg/kg), day 34) was 101.9 % of baseline. The “Mean normalized body weight (% of baseline), study day 36” value (male C57BL/6N DIO mice; DIO mice, BID oral (DA 23.1 mg/kg, DB 26.8 mg/kg), day 36) was 101.5 % of baseline, the “Mean normalized body weight (% of baseline), study day 39” value (male C57BL/6N DIO mice; DIO mice, BID oral (DA 23.1 mg/kg, DB 26.8 mg/kg), day 39) was 102.6 % of baseline and the “Mean normalized body weight (% of baseline), study day 41” value (male C57BL/6N DIO mice; DIO mice, BID oral (DA 23.1 mg/kg, DB 26.8 mg/kg), day 41) was 103.1 % of baseline. For the same compound, the “Mean normalized body weight (% of baseline), study day 46” value (male C57BL/6N DIO mice; DIO mice, BID oral (DA 23.1 mg/kg, DB 26.8 mg/kg), day 46) was 103.9 % of baseline, the “Mean normalized body weight (% of baseline), study day 49” value (male C57BL/6N DIO mice; DIO mice, BID oral (DA 23.1 mg/kg, DB 26.8 mg/kg), day 49) was 104.7 % of baseline and the “Mean normalized body weight (% of baseline), study day 51” value (male C57BL/6N DIO mice; DIO mice, BID oral (DA 23.1 mg/kg, DB 26.8 mg/kg), day 51) was 104.9 % of baseline. For the same compound, the “Mean normalized body weight (% of baseline), study day 53” value (male C57BL/6N DIO mice; DIO mice, BID oral (DA 23.1 mg/kg, DB 26.8 mg/kg), day 53) was 105.2 % of baseline, the “Mean normalized body weight (% of baseline), study day 56” value (male C57BL/6N DIO mice; DIO mice, BID oral (DA 23.1 mg/kg, DB 26.8 mg/kg), day 56) was 106.7 % of baseline and the “food consumption compared to vehicle-dosed mice” value (male C57BL/6N DIO mice; DIO mice, BID oral, 56-day treatment) was “nominally decreased food consumption compared to vehicle-dosed mice”. For the same compound, the “body weight gain, DA compared with DB” value (male C57BL/6N DIO mice; DIO mice, Day 34 to Day 56) was “body weight gain was less”, the “food consumption, DA compared with DB” value (male C57BL/6N DIO mice; DIO mice, all indicated measurement days except for Day 42) was “food consumption was less” and the LD50 at 14 day (in vivo) was 945 mg/kg. The MTD at 14 day (in vivo) was 360 mg/kg, the Mortality rate (Sprague Dawley rats; both, 120 mg/kg, 14 day) was 0% and the Mortality rate (Sprague Dawley rats; both, 360 mg/kg, 14 day) was 0%. The Mortality rate (Sprague Dawley rats; both, 1000 mg/kg, 14 day) was 50%, the Mortality rate (Sprague Dawley rats; both, 2000 mg/kg, 14 day) was 100% and the “Estimated LD50” value (Sprague Dawley rats; both, 14 day) was 945 mg/kg. For the same compound, the “No. of animals died within 24 h post dosing” value (Sprague Dawley rats; female, 120 mg/kg) was 0, the “No. of animals died within 24 h post dosing” value (Sprague Dawley rats; female, 360 mg/kg) was 0 and the “No. of animals died within 24 h post dosing” value (Sprague Dawley rats; female, 1000 mg/kg) was 3. The “No. of animals died within 24 h post dosing” value (Sprague Dawley rats; female, 2000 mg/kg) was 3, the “No. of animals died within 24 h post dosing” value (Sprague Dawley rats; male, 120 mg/kg) was 0 and the “No. of animals died within 24 h post dosing” value (Sprague Dawley rats; male, 360 mg/kg) was 0. For the same compound, the “No. of animals died within 24 h post dosing” value (Sprague Dawley rats; male, 1000 mg/kg) was 0 and the “No. of animals died within 24 h post dosing” value (Sprague Dawley rats; male, 2000 mg/kg) was 3.
